Assay results as given in article PMC8449414, “Rational design of ASCT2 inhibitors using an integrated experimental-computational approach” (Proceedings of the National Academy of Sciences of the …, 2021).
Entries after “also recorded” stand apart in the source; their conditions may differ.

Key:
[1] = target: T1, rEAAT3 (Rattus norvegicus, UniProt P51907); experiment: Electrophysiology: SLC1 specificity, anion current in transfected HEK293 cells; format: cell-based; conditions: 0 mV, 10 mM glutamate and 130 mM NaSCN internal, No current = no outward current up to highest concentration tested (§ 20-50, || 100-400, # 1500-2500 µM); for Ki: read-out: Binding affinity Ki
T1 construct: expressed in transfected cells; host or cells: HEK293 (ATCC CRL-11268), transient transfection
T1 sequence (P51907 1-523): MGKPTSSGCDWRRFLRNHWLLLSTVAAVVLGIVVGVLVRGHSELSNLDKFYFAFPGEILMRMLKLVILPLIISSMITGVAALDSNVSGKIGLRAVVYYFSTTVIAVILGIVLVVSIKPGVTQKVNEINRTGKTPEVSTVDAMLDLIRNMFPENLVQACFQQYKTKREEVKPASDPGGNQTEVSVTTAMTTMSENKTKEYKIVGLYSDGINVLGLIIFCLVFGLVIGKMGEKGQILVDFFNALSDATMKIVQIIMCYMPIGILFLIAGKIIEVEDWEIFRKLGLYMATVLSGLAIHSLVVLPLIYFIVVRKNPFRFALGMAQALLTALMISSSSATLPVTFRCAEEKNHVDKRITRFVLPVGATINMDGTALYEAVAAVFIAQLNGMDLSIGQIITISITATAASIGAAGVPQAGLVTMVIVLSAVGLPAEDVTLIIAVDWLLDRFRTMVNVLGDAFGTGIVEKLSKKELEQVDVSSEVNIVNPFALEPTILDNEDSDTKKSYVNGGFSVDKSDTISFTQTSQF
Method: (§1) We also tested the specificity of Lc-BPE for ASCT2 over other SLC1 family members (ASCT1, EAAT1-3, and EAAT5).
(§2) Fig. S3. SLC-1 specificity of Lc-BPE. (A) Electrophysiological current responses to the application of 100 µM glutamate (red trace) or varying concentrations of Lc-BPE (black, blue and red traces) to rEAAT1-expressing cells HEK293 cells. (B-C) Dose response curves obtained from currents recorded a fter application of Lc-BPE extracellularly to cells transiently expressing hASCT2, rASCT2, hASCT1 (panel B) and rEAAT1, rEAAT2, rEAAT3 and hEAAT5 (panel C) respectively. For hASCT2, rASCT2 and hASCT1, intracellular pipette solution contained 10 mM alanine and 130 mM NaSCN. For rEAAT1, rEAAT2, rEAAT3 and hEAAT5, intracellular solution contained 10 mM glutamate and 130 mM NaSCN. Extracellular solution was the same for all the experiments (140 mM NaCl). The voltage was 0 mV. […]
(§3) Cell culture and transfection
(§4) Human embryonic kidney 293 (HEK293, ATCC CRL -11268) cells were cultured in DMEM media supplemented with 10% (v/v) fetal bovine serum (FBS), 2 mM glutamine, 1% penicillin streptomycin solution, 1 mM sodium pyruvate and non -essential amino acids. Cells were maintained at 370C in a fully humidified atmosphere containing 5% CO2. rASCT2, hASCT2, hASCT1, EAAT1, EAAT2, EAAT3, EAAT5 and YFP complementary DNAs were each used to transiently transfect HEK293 using POLYPLUS Jet-prime transfection reagent. Cells were analyzed using electrophysiological techniques 24-40 hours after transfection.
(§5) Electrophysiological techniques
(§6) Electrophysiological experiments were performed as described previously 1,2. Stock solutions of inhibitor was prepared in dimethyl sulfoxide (DMSO) up to 100 mM.
(§7) Dilutions to working concentrations were made using external buffer. The highest […]
(§8) cells. For rASCT2, hASCT2 and hASCT1, external buffer contained 140 mM NaCl, 2 mM MgCl2, 2 mM CaCl2, and 10 mM HEPES, pH 7.40 while internal pipette solution comprised of 130 mM NaSCN, 2 mM MgCl2, 10 mM EGTA, 10 mM HEPES and 10mM alanine, pH 7.40. For specificity experiments with EAAT1, EAAT2, EAAC1 and EAAT5, internal solution contained 10 mM glutamate instead of alanine. Compounds were applied to HEK293 cells expressing DNA of interest suspended from a current recording electrode in whole cell configuration44 through a rapid solution exchange device described previously45. Cells are immersed in external buffer bath used to dissolve the inhibitors. The open pipette resistance was between 3 and 6 MΩ. Series resistance was not compensated in these experiments due to relatively small currents. Current s traces were recorded using an Adams and List EPC7 amplifier and digitized using a Molecular Devices Digidata A/D converter.
(§9) Data analysis was performed as described previously 46. Linear and nonlinear curve fitting of the experimental data were analyzed using MicroCal Origin software. Linear plots were fitted using the general equation (y = a + bx) obtaining adjusted R 2 and Pearson’s r values. Nonlinear dose–response relationships were fitted with a Michaelis – Menten-like equation to obtain apparent Ki values in the absence of substrate. For competition studies, equation I = I1 + I2 [Inh]/(Ki + [Inh]) was used for fitting, where I1 is the alanine induced current without the inhibitor, and I2 is the maximum current in the presence of saturating inhibitor concentration, [Inh]max 1,2. At least five experiments were performed for each compound. Unless stated otherwise, the error bars in all our graphs represent mean ± SD .
(§10) ASCT2 expression and purification
(§11) Human ASCT2 (hASCT2) was produced in Pichia pastoris X-33 strain (Invitrogen) in fermentor26 and purified using DDM and CHS (Anatrace) and 1 mM L-glutamine (Merck) to maintain protein stability 27. Membranes representing ~1.5 g cells were solubilized in buffer A (25 mM Tris-HCl, pH 7.4, 300 mM NaCl, 10% (vol/vol) glycerol, 1 mM L - glutamine, 1% DDM and 0.1% CHS) for 1 h at 4 °C; ultracentrifuged (30 min, 442,907 × […]

[2] = target: T2, rEAAT1 (Rattus norvegicus, UniProt P24942); experiment: as above; format: cell-based; conditions: 0 mV, 10 mM glutamate and 130 mM NaSCN internal, No current = no outward current up to highest concentration tested (§ 20-50, || 100-400, # 1500-2500 µM); for Ki: read-out: Binding affinity Ki
T2 construct: expressed in transfected cells; host or cells: HEK293 (ATCC CRL-11268), transient transfection
T2 sequence (P24942 1-543): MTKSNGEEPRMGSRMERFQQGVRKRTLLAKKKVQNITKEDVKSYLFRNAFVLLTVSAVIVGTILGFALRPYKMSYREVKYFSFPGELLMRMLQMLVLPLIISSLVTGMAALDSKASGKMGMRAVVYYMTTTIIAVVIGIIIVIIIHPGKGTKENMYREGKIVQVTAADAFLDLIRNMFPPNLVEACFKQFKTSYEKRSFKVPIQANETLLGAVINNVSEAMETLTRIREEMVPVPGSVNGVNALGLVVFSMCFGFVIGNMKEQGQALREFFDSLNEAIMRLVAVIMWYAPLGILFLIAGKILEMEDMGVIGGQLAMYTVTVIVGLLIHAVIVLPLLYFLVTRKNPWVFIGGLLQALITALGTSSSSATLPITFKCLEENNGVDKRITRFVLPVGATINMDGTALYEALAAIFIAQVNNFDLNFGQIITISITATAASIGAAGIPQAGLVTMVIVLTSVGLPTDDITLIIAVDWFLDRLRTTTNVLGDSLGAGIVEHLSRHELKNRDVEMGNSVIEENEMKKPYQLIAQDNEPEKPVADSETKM
Method: as §1, §2, §3, §4, §5, §6, §7, §8, §9, §10, §11

SMILES | Binding affinity Ki [1] | Binding affinity Ki [2] | Ki [1] | Ki [2]
O=C(O[C@@H]1CN[C@H](C(=O)O)C1)c1ccccc1-c1ccccc1 [ERA-3] | No current | No current | – | –
O=C(O[C@@H]1CN[C@H](C(=O)O)C1)c1ccc(-c2ccc(F)cc2)cc1 [ERA-4] | – | – | 0.69 ± 0.07 µM | 0.4 ± 0.07 µM
O=C(O[C@@H]1CN[C@H](C(=O)O)C1)c1ccc(-c2ccc(C(F)(F)F)cc2)cc1 [ERA-5] | – | – | 1.25 ± 0.24 µM | 1 ± 0.25 µM
Cc1ccccc1-c1ccc(C(=O)O[C@@H]2CN[C@H](C(=O)O)C2)cc1 [ERA-6] | – | – | 1.99 ± 0.36 µM | 1 ± 0.11 µM
O=C(O[C@@H]1CN[C@H](C(=O)O)C1)c1ccc(C(O)c2ccccc2)cc1 (some centres unmarked) [ERA-9] | No current; also recorded: No inhibitory activity was detected | – | – | 39.5 µM
O=C(Nc1ccc(C(=O)O[C@@H]2CN[C@H](C(=O)O)C2)cc1)c1ccc(C(F)(F)F)cc1 [ERA-11] | No current | – | – | 9.6 ± 7.5 µM
O=C(O[C@@H]1CN[C@H](C(=O)O)C1)c1ccc(Oc2ccccc2)cc1 [ERA-16] | – | – | 10.3 ± 2.15 µM | 8.18 ± 1.77 µM
N[C@@H](COC(=O)c1ccc(NC(=O)c2ccccc2)cc1)C(=O)O [ERA-21] | – | – | 12.3 ± 1.86 µM | 9.57 ± 1.61 µM
N[C@@H](COC(=O)c1ccccc1)C(=O)O [ERA-25] | – | – | 656 ± 115 µM | 195 ± 48.4 µM
N[C@@H](COC(=O)c1cccnc1)C(=O)O [ERA-28] | No current | No current | – | –
O=C(O[C@@H]1CN[C@H](C(=O)O)C1)C(c1ccccc1)c1ccccc1 [ERA-29] | No current | No current | – | –
O=C(O[C@@H]1CN[C@H](C(=O)O)C1)c1ccc(OCc2ccccc2)cc1 [ERA-31] | No current | No current | – | –
O=C(O[C@H]1CN[C@H](C(=O)O)C1)c1ccc(C(=O)c2ccccc2)cc1 [ERA-35] | No current | No current | – | –
